Literature values, collected in paper PMC11584006, “Structural characterization and AlphaFold modeling of human T cell receptor recognition of NRAS cancer neoantigens” (Science Advances, 2024).

Tested on: T cells transduced with these TCRs
Settings: for peptide concentration at which TCR-transduced T cells can be activated: APCs pulsed with peptide, wild-type tested at >1000-fold higher concentrations
Description: KRAS is the most highly mutated RAS isoform across cancers, accounting for ~85% of all RAS mutations with especially high frequencies in pancreatic and colorectal cancers ([12], [13]). However, NRAS mutations dominate in melanomas, with mutations at position 61 appearing in ~20% of patients ([14]). The two most frequent mutations are Q61K and Q61R ([15]). Mutant NRAS melanomas have more aggressive clinical features and poorer outcomes compared to nonmutant NRAS melanomas ([16]–[18]). […] This HLA-A*01:01–restricted TCR recognizes the NRAS^Q61K and NRAS^Q61R neoepitopes using gene segments TRDV1 and TRAJ27-1 for the α chain and TRBV27 and TRBJ2-5 for the β chain. […] Recombinant TCR and pMHC proteins were expressed by in vitro folding from bacterial inclusion bodies. Biotinylated wild-type NRAS–HLA-A1, NRAS ...

Sequence | peptide concentration at which TCR-transduced T cells can be activated | concentration of peptide required for recognition (peptide titrations), relative to NRAS^Q61K (peptide titrations, HLA-A*01:01)
ILDTAGKEEY [NRAS^Q61K, NRAS^Q61K peptide ([…]), residues 55 to 64] | subnanomolar | –
ILDTAGREEY [NRAS^Q61R, NRAS^Q61R peptide ([…])] | subnanomolar | a higher concentration
ILDTAGQEEY [wild-type NRAS peptide, reference compound] | do not respond | –
